Test results as given in patent USRE39071E1, “Anhydro-and isomer-a-21978c cyclic peptides” (Eli Lilly and Company, priority 1987, dated 2006).
≈ marks a conversion by molar mass, not a printed value.

Columns and labels:
[1] = tested on: Streptococcus pyogenes; experiment: Experimental infection in mice, subcutaneous ED50; format: in vivo; details: two doses
Description: (§1) The new derivatives of this invention have also shown in vivo antimicrobial activity against experimental bacterial infections. When two doses of test compound were administered to mice in experimental infections, the activity observed was measured as an ED50 value [effective dose in mg/kg to protect 50% of the test animals: see Warren Wick, et al., J. Bacteriol. 81, 233-235 (1961)].

[2] = tested on: Streptococcus pneumoniae; experiment: Experimental infection in mice, subcutaneous ED50; format: in vivo; details: two doses
Description: as §1

[3] = tested on: Staphylococcus aueus; experiment: Experimental infection in mice, subcutaneous ED50; format: in vivo; details: two doses
Description: as §1

[4] = tested on: Streptococcus pyogenes C203; format: cell-based
Description: (§2) Table I summarizes the minimal inhibitory concentrations (MIC's) at which the two illustrative compounds, anhydro-LY146032 and isomer-LY146032, inhibit certain organisms, as determined by standard agar-dilution assays.

[5] = tested on: Staphylacoccus aureus X400 (methicillin-resistant strain); format: cell-based
Description: as §2

[6] = tested on: Staphylacoccus aureus XL1; format: cell-based
Description: as §2

[7] = tested on: Streptococcus faecalis 2041; format: cell-based
Description: as §2

[8] = tested on: Streptococcus faecalis X66; format: cell-based
Description: as §2

[9] = tested on: Staphylacoccus epidermidis 222; format: cell-based
Description: as §2

[10] = tested on: Staphylacoccus aureus V41 (penicillin-resistant strain); format: cell-based
Description: as §2

[11] = tested on: Haemophilus influenzae CL (ampicillin-sensitive strain); experiment: Agar-dilution MIC; format: cell-based
Description: as §2

[12] = tested on: Haemophilus influenzae 76 (ampicillin-resistant strain); experiment: Agar-dilution MIC; format: cell-based; parameters: unit not given beside the values
Description: as §2

SMILES | Subcutaneous ED50 [1] [mg/kg] | Subcutaneous ED50 [2] [mg/kg] | Subcutaneous ED50 [3] [mg/kg] | MIC [4] [µg/mL] | MIC [5] [µg/mL] | MIC [6] [µg/mL] | MIC [7] [µg/mL] | MIC [8] [µg/mL] | MIC [9] [µg/mL] | MIC [10] [µg/mL] | MIC [11] | MIC [12]
CCCCCCCCCC(=O)N[C@@H](Cc1c[nH]c2ccccc12)C(=O)N[C@@H](CC(N)=O)C(=O)N[C@@H](CC(=O)O)C(=O)N[C@@H]1C(=O)NCC(=O)N[C@@H](CCCN)C(=O)N[C@@H](CC(=O)O)C(=O)N[C@H](C)C(=O)N[C@H]2CC(=O)N(CC(=O)N[C@H](CO)C(=O)N[C@@H]([C@H](C)CC(=O)O)C(=O)N[C@@H](CC(=O)c3ccccc3N)C(=O)O[C@@H]1C)C2=O [Anhydro-LY146032] | 1.15 | 3.36 | 9.05 | 1 (≈ 0.624 µM) | 8 (≈ 4.99 µM) | 4 (≈ 2.5 µM) | 16 (≈ 9.98 µM) | 64 (≈ 39.9 µM) | 4 (≈ 2.5 µM) | 4 (≈ 2.5 µM) | — (>128) | — (>128)
CCCCCCCCCC(=O)N[C@@H](Cc1c[nH]c2ccccc12)C(=O)N[C@@H](CC(N)=O)C(=O)N[C@@H](CC(=O)O)C(=O)N[C@@H]1C(=O)NCC(=O)N[C@@H](CCCN)C(=O)N[C@@H](CC(=O)O)C(=O)N[C@H](C)C(=O)N[C@H](C(=O)O)CC(=O)NCC(=O)N[C@H](CO)C(=O)N[C@@H]([C@H](C)CC(=O)O)C(=O)N[C@@H](CC(=O)c2ccccc2N)C(=O)O[C@@H]1C [Isomer-LY146032] | <1.25 | 3.40 | 10.68 | 2 (≈ 1.23 µM) | 8 (≈ 4.94 µM) | 8 (≈ 4.94 µM) | 32 (≈ 19.7 µM) | 128 (≈ 79 µM) | 8 (≈ 4.94 µM) | 8 (≈ 4.94 µM) | —^f (>128) | —^ (>128)
